SMILES strings stand for the structures.

The experiment deals with Transthyretin (Homo sapiens) (UniProt P02766). The experiment in a line: Relative binding affinity against prealbumin in competition binding assay and expressed as relative to L-T4 (100).
Consider `N[C@@H](Cc1cc(I)c(Oc2cc(I)c(O)c(I)c2)c(I)c1)C(=O)O`, for which the Binding affinity stood at 100. `O=C(O)CCCCC(=O)Nc1cc(Cl)cc2c1oc1cc(Cl)c(Cl)cc12`: the Binding affinity was 0.32.

In turn, `Oc1c(I)cc(I)cc1I` registered a Binding affinity of 384. To `O=C(O)CCCCC(=O)Nc1cc(Cl)cc2c1Oc1cc(Cl)c(Cl)cc1O2` belongs 15.

Values taken from ChEMBL document CHEMBL1122962, “Molecular interactions of toxic chlorinated dibenzo-p-dioxins and dibenzofurans with thyroxine binding prealbumin” (J Med Chem, 1985).
